According to ChEMBL document CHEMBL1158292, “Progress in the discovery of biosynthetic anticancer drugs” (1996):

Legend:
Type in all cases: functional
P388 [1] = assay: Antineoplastic activity against mouse P388 cells at 100 mg/kg relative to control
P388 [2] = assay: Antineoplastic activity against mouse P388 cells at 32 mg/kg relative to control
P388 [3] = assay: Antineoplastic activity against mouse P388 cells at 3 mg/kg relative to control
[4] = Growth inhibition of human lung cancer cells at 10^-10 M; settings: Cancer cell lines, read-out: GI
[5] = Growth inhibition of human colon cancer cells at 10^-10 M; settings: Cancer cell lines, read-out: GI
[6] = Growth inhibition of human renal cancer cells at 10^-10 M; settings: Cancer cell lines, read-out: GI
[7] = Growth inhibition of human ovarian cancer cells at 10^-10 M; settings: Cancer cell lines, read-out: GI
[8] = Growth inhibition of human breast cancer cells at 10^-10 M; settings: Cancer cell lines, read-out: GI
OVCAR-3 = assay: In vivo antineoplastic activity against human OVCAR-3 cells at 25 ug/kg
P388 [9] = assay: Antineoplastic activity against mouse P388 cells at 12.5 mg/kg relative to control
P388 [10] = assay: Antineoplastic activity against mouse P388 cells
B16 = assay: In vivo antineoplastic activity against mouse B16 cells at 11 ug/kg

## NCCS(=O)(=O)O [TAURINE]
P388 [1]
  T/C: 123

## C=C1C(=O)O[C@@H]2C(=O)[C@@H](C)[C@@H]3C=CC(=O)[C@@]3(C)[C@@H](OC(=O)/C(C)=C\C)[C@H]12 [MULTISTATIN]
P388 [2]
  T/C: 131

## C=C1C(=O)O[C@@H]2C[C@@H](C)[C@@H]3C=CC(=O)[C@@]3(C)[C@@H](O)[C@H]12 [HELENALIN]
P388 [3]
  T/C: 220

## C=C(Cl)/C=C/[C@H](O)CC(=C)C[C@H]1O[C@@H]2[C@H](C)[C@@H](OC(=O)C[C@@H]3C[C@@H](OC(C)=O)C[C@]4(C[C@](C)(O)C[C@@H](CC(=C)[C@H](C)[C@@H](OC(C)=O)[C@H](C)C(=O)C[C@H]5C[C@@H](OC)C[C@]6(C[C@H](O)C[C@@H](/C=C\CCC[C@@H]7O[C@@](O)(C[C@@H](O)[C@@H]7C)[C@H]2O)O6)O5)O4)O3)[C@@H]1O
[4]
  inhibition of growth at 0.0001 µM: 50%
[5]
  inhibition of growth at 0.0001 µM: 50%
[6]
  inhibition of growth at 0.0001 µM: 50%
[7]
  inhibition of growth at 0.0001 µM: 50%
[8]
  inhibition of growth at 0.0001 µM: 50%
OVCAR-3
  Activity: 70%

## C=C1C(=O)O[C@@H]2[C@H](O)[C@@H](C)[C@@H]3C=CC(=O)[C@@]3(C)[C@@H](OC(=O)/C(C)=C\C)[C@H]12 [MULTIGILIN]
P388 [9]
  T/C: 164

## C[C@@H]1[C@]2(O[C@H]3C=C4[C@@H]5CC[C@H]6Cc7nc8c(nc7C[C@]6(C)[C@H]5C[C@@H](O)[C@]4(C)[C@]31O)C[C@@H]1CC[C@H]3C4=CC[C@@H]5[C@H](C)[C@@]6(OC[C@]45C(=O)C[C@@H]3[C@@]1(C)C8)OC(C)(C)C[C@H]6O)O[C@](C)(CO)C[C@H]2O [CEPHALOSTATIN 1]
P388 [10]
  ED50: 1 ×10⁻⁹ ug/ml

## CC[C@H](C)[C@@H]([C@@H](CC(=O)N1CCC[C@H]1[C@H](OC)[C@@H](C)C(=O)N[C@@H](Cc1ccccc1)c1nccs1)OC)N(C)C(=O)[C@@H](NC(=O)[C@H](C(C)C)N(C)C)C(C)C [DOLASTATIN-10]
B16
  Activity: 80%
